Assays:
[1] = test system: magnesium deficiency-induced dermatosis in rat; assay: model of magnesium deficiency-induced dermatosis in rat; format: in vivo; conditions: male hairless rats on low-magnesium diet, oral treatment at 6 mg/kg/day, 5 consecutive days
Source text: Activity of mGluR5 antagonists as antipruritics according to the invention is evidenced for example in a model of magnesium deficiency-induced dermatosis in rat. This dermatosis is characterised by a transient erythematous maculopapular rash associated with a severe generalised pruritus. The animals scratch and bite themselves causing excoriations and wounds on the head and trunk (Neckermann G., Bavandi A., Meingassner J. G., Br. J. Dermatol; 2000; 142: 669-679). According to this model, male hairless rats (Ico:OFA hr/hr) obtained from Iffa Credo (Lyon, France) at an age of 3 weeks are maintained with a diet low in magnesium (C10350, Altromin, Lage, Germany) and demineralised water. After onset of symptoms, the test compound is applied orally to 5 rats per group on 5 consecutive days. Control animals are treated similarly with the vehicle alone. Efficacy is assessed by clinical examination and semiquantitative assessment of skin lesions. The intensity and extend of the erythematous maculopapular rash is scored with 0 (not present) to 4 (most severe changes, involvement of the whole trunk). The intensity of pruritus is evaluated by the scoring of excoriations at the head, shoulders, lateral abdomen/flanks and caudal dorsal trunk with 0 (not present), 1 (few lesions) or […] (numerous lesions) resulting in a combined maximal score of 12 per animal. […]

[2] = test system: itch induced in mice by Compound 48/80; assay: model of itch induced in mice by injection of the pruritic agent Compound 48/80; format: in vivo; conditions: C57BL/6 mice, 30 μg/10 μl s.c. Compound 48/80, oral administration of 3-30 mg/kg and 10-100 mg/kg, 30 min prior, observed 30 minutes
Method: Experiments are carried out on adult female and male C57BL/6 mice (25-30 g). Individual mice receive the test compound p.o. (a vehicle alone for control animals) 30 min. prior to subcutaneous injections of the above mentioned pruritic agent into the dorsal neck region and are then placed into a clear Perspex box. A maximum of 3 mice are closely and continuously observed by an experimenter for 30 minutes following injection. ‘Scratching episodes’ are defined as scratching focused at the site of injection using the hind paws, and differentiated from grooming behaviour that also involves licking and is systematically directed over all body regions. The duration of the itch behaviour is recorded by using a keyboard linked to three stop-clocks.

Row | Compound | inflammatory skin reddening and infiltration [1] | signs of pruritus (scoring of excoriations) [1] | duration of scratching episodes induced by the pruritic agent [2]
1 | Cc1cccc(C#Cc2cccnc2)n1 [2-[2-(pyridin-3-yl)ethynyl]-6-methyl-pyridine] | is not inhibited | inhibits signs of pruritus | –
2 | Cc1cccc(C#Cc2ccccc2)n1 [2-methyl-6-phenylethynyl-pyridine] | – | – | significantly decreases
